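Five concentrations, 48 hours, 96-well plates. TGI denotes the concentration required for complete inhibition of growth.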

We go through 13 molecules from PubChem BioAssay (NCI).

Holding throughout (test): NCI-60 cell line screen, 48 h
The test system of assay [1] is HOP-62 NSCLC.
Assay [2] has as its system HOP-92 NSCLC.
The subject of assay [3] is HT29 colon.
Assay [4] concerns IGROV1 ovarian.
The subject of assay [5] is K-562 leukemia.
Assay [6] concerns KM12 colon.
Assay [7] concerns LOX IMVI melanoma.
Assay [8] deals with M14 melanoma.
Assay [9] has as its system MDA-MB-435.
In assay [10] the test system is NCI-H23 lung.
The subject of assay [11] is NCI-H460 lung.
Assay [12] deals with OVCAR-8 ovarian.
Assay [13] deals with PC-3 prostate.
In assay [14] the test system is SN12C renal.
Assay [15] deals with SNB-19 CNS.
In assay [16] the test system is SNB-75 CNS.
Assay [17] has as its system SW-620 colon.
Assay [18] has as its system OVCAR-4 ovarian.
Assay [19] concerns SK-OV-3 ovarian.
Assay [20] deals with TK-10 renal.

Turning to `CC(=O)OC/C=C\Cn1ncc(=O)[nH]c1=O`, the TGI in assay [1] came out at 43.9 µM; in [2] it was 30.6 µM; in [3], 29.9 µM; in [4], 42.5 µM; in assay [5], 54.9 µM; in [6], 31.3 µM. Moreover, the TGI was 13.3 µM in [7]; 46.8 µM in [8]; 39.3 µM in [9]; 28.9 µM in assay [10]; 48.7 µM in assay [11]; 66.1 µM in assay [12]. Further, the TGI is 36 µM in assay [13]; 42 µM in [14]; > 100 µM in assay [15]; 33.9 µM in assay [16]; 40.5 µM in [17].

Take `OCC1NC(CO)C(O)C1O` (stereo not given): the TGI in assay [1], in assay [2], in assay [3], in [4], in assay [5] and in assay [6] was > 100 µM throughout. The TGI in [7], in [8], in [9], in [10], in assay [11] and in assay [18] was > 100 µM throughout. In addition, the TGI in [12], in assay [13], in assay [19], in [14], in [15] and in [16] was > 100 µM each time. Moreover, the TGI in [17] and in [20] was > 100 µM in each case.

In the case of `CCOP(=O)(OCC)C(Cc1c[nH]c2ccccc12)C(=O)O` (stereo not given), the TGI in [1], in [2], in [3], in assay [4], in assay [5] and in assay [7] was > 100 µM each time. In addition, the TGI in assay [8], in assay [9], in [10], in assay [11], in assay [18] and in assay [12] was > 100 µM throughout. The TGI in assay [13], in assay [19], in assay [14], in assay [15], in [16] and in assay [17] was > 100 µM in each case. In addition, in assay [20], the TGI is > 100 µM.

For `O=C(N[C@H](CO)[C@H](O)c1ccc([N+](=O)[O-])cc1)C(Cl)Cl`, the TGI in [1], in assay [2], in assay [3], in assay [4], in assay [5] and in assay [6] was > 100 µM throughout. For the same molecule, the TGI in assay [7], in assay [8], in assay [9], in [10], in assay [11] and in assay [18] was > 100 µM throughout. In addition, the TGI in assay [12], in assay [13], in assay [19], in assay [14], in assay [15] and in [16] was > 100 µM each time. In addition, the TGI in [17] and in [20] was > 100 µM throughout.

For the molecule `COc1ncnc2c(Cl)c(C(O)c3ccccc3)c(Cl)cc12` (stereo not given), the TGI was 32.5 µM in assay [1]; 65.4 µM in assay [2]; > 100 µM in assay [3]; > 100 µM in [4]; 69.3 µM in assay [5]; > 100 µM in [6]. Besides, the TGI is > 100 µM in assay [7]; 89.9 µM in [8]; 21.3 µM in assay [9]; > 100 µM in assay [10]; > 100 µM in assay [11]; > 100 µM in assay [18]. In addition, the TGI in assay [12] was > 100 µM; in [13], > 100 µM; in [19], 49 µM; in assay [14] it was 86.8 µM; in assay [15], 79.9 µM; in assay [16] it was 97.8 µM. The TGI worked out at 92.6 µM in assay [17] and 63.4 µM in assay [20].

For the molecule `O=C(Nc1ccc(C(F)(F)F)cc1[N+](=O)[O-])C(=O)Nn1c(=S)[nH]c2ccccc2c1=O`, the TGI in assay [1], in [2], in assay [3], in assay [4], in assay [5] and in [6] was > 100 µM each time. Besides, the TGI in assay [7], in [10], in assay [11], in [18], in assay [12] and in [19] was > 100 µM throughout. Further, the TGI in [14], in assay [15], in assay [16], in [17] and in assay [20] was > 100 µM throughout.

Regarding `Nc1ccc(C2(c3ccc(N)cc3)C3CC4CC(C3)CC2C4)cc1`, the TGI stood at 29.3 µM in [1]; 28.5 µM in [2]; 26.3 µM in [3]; 24.1 µM in assay [4]; 47.4 µM in assay [5]; 25.3 µM in assay [6]. The TGI in assay [7] amounted to 39.7 µM; in [8] it was 29.9 µM; in [9], 31.5 µM; in assay [10], 28.7 µM; in assay [18] it was 32.5 µM; in [12] it was 35.5 µM. Further, the TGI in assay [13] turned out to be 29.3 µM; in [19], 30 µM; in [14], 45.7 µM; in assay [15], 33.3 µM; in [17], 28.8 µM; in assay [20], 32.2 µM.

Take `Cc1ccc(S(=O)(=O)NCCCSCCN)cc1`: the TGI in [2], in assay [3], in assay [5], in [6], in assay [7] and in assay [8] was > 100 µM each time. For the same molecule, the TGI in assay [9], in assay [10], in [11], in assay [18], in assay [12] and in [13] was > 100 µM in each case. In addition, the TGI in [19], in [14], in assay [15], in assay [16], in assay [17] and in assay [20] was > 100 µM throughout.

Take `COc1ccc(/C=C/c2cc(O)cc(OC3OC(CO)C(O)C(O)C3O)c2)cc1O` (stereo not given): the TGI in [1] is > 100 µM; in assay [2] it was > 100 µM; in assay [3], > 100 µM; in assay [4], > 100 µM; in assay [5], > 100 µM; in assay [6] it was 86.5 µM. Further, the TGI in assay [7], in assay [8], in [9], in [11], in assay [18] and in assay [12] was > 100 µM throughout. Moreover, the TGI in assay [13], in assay [19], in assay [14], in [15], in assay [16] and in assay [17] was > 100 µM in each case. Moreover, in [20], the TGI was > 100 µM.

As for `O=S1(=O)C[C@H](NCc2ccccc2)[C@H](NCc2ccccc2)C1`, the TGI in [1], in [2], in assay [3], in assay [4], in assay [5] and in [6] was > 100 µM in each case. In addition, the TGI in assay [7], in [8], in assay [9], in assay [10], in assay [11] and in assay [18] was > 100 µM throughout. The TGI in assay [12], in [13], in [19], in assay [14], in assay [15] and in assay [16] was > 100 µM each time. Besides, the TGI in assay [17] and in assay [20] was > 100 µM each time.

Consider `COc1ccc(CCn2ccc(C)n2)c(OC)c1`, for which the TGI in [1], in assay [3], in assay [4], in assay [5], in assay [6] and in assay [7] was > 100 µM throughout. The TGI in assay [8], in assay [9], in assay [10], in assay [11], in [18] and in assay [12] was > 100 µM each time. Moreover, the TGI in [13], in assay [19], in assay [14], in assay [15], in [16] and in assay [17] was > 100 µM in each case. Moreover, the TGI in assay [20] is > 100 µM.

For the molecule `CC=C/C=C/[C@@H]1O[C@](O)([C@H](CC)C(=O)NC/C=C/C=C(\C)[C@@H](OC)[C@@H](C)[C@@H]2O[C@H](/C=C/C=C/C=C(\C)C(=O)c3c(O)cc[nH]c3=O)[C@H](O)[C@@H]2O)[C@H](O)[C@H](O)C1(C)C`, the TGI in assay [1], in [2], in [3], in assay [4], in assay [5] and in assay [6] was > 100 µM each time. For the same molecule, the TGI in assay [8], in assay [9], in [10], in assay [11], in assay [18] and in [12] was > 100 µM throughout. The TGI in assay [13], in [19], in assay [15], in assay [16], in [17] and in assay [20] was > 100 µM each time.

In the case of `O=Nn1c2ccccc2c2ccccc21`, the TGI in assay [1], in assay [2], in assay [3], in assay [4], in assay [5] and in assay [6] was > 100 µM in each case. Besides, the TGI in [7], in [8], in assay [9], in [10], in assay [11] and in assay [18] was > 100 µM each time. For the same molecule, the TGI in assay [12], in [13], in assay [19], in [14], in assay [15] and in [16] was > 100 µM throughout. Moreover, the TGI in [17] and in assay [20] was > 100 µM throughout.
